Measured values published in patent US20200001104A1, “SCALABLE MAGNETOMECHANICAL SCHEMES AND DEVICES FOR REMOTE CONTROL OF MECHANOSENSITIVE CELLS” (Massachusetts Institute of Technology, priority 2018, published 2020).
Entries after “also recorded” stand apart in the source; their conditions may differ. Like-named read-outs stand apart in the source and are kept apart here.

System: dorsal root ganglion (DRG) explant cultures
Assay: Magnetomechanical stimulation in the presence of channel blockers, calcium imaging
Assay type: cell-based, rat
[1] = blocker at 100 μM, MNDs plus MF
[2] = cells incubated with blocker, all doses, one-way ANOVA, n=6

## [Cl][Gd]([Cl])[Cl] [Gd^3+, Gadolinium(III) (Gd^3+) chloride]
[1]
  Ca2+ response to magnetomechanical stimulation: enhanced response; also recorded: increases Ca^2+ influx
Blocker at 1000 μM (1 mM), MNDs plus MF
  Ca2+ response to magnetomechanical stimulation: reduced response; also recorded: nearly eliminates Ca^2+ activity
Blocker at 1 mM, one-way ANOVA and Tukey's HSD, n=6
  fraction of cells responding to magnetomechanical stimulation: significantly lower fraction

## CCCCCC/C=C\CCCCCCCC(=O)O [PA, palmitoleic acid]
Blocker at 30-300 μM, MNDs plus MF
  Ca2+ response to magnetomechanical stimulation: failed to block; also recorded: do not affect
[2]
  number of responders to magnetomechanical stimulation: No significant difference

## NC1=N[C@H](O)[C@H]2[C@H]3O[C@]4(O)O[C@@H]([C@@H](O)[C@@]2(N1)[C@@H]4O)[C@]3(O)CO [TTX, tetrodotoxin]
  Ca2+ response to magnetomechanical stimulation: failed to block; also recorded: do not affect
  number of responders to magnetomechanical stimulation: No significant difference

## ruthenium red [RuR]
Blocker at 10 μM, MNDs plus MF
  Ca2+ response (ΔF/F0) to magnetomechanical stimulation: larger ΔF/F0 changes; also recorded: increases
[1]
  Ca2+ response to magnetomechanical stimulation: returns to baseline levels
[2]
  number of responders to magnetomechanical stimulation: No significant difference
